Measurements as given in patent publication US8741350B2, “Taste masked pharmaceutical composition” (Boehringer Ingelheim Vetmedica GmbH, priority 2011, dated 2014).
Like-named read-outs stand apart in the source and are kept apart here.

Key:
[1] = Water solubility (statement); assay type: physicochemical
[2] = background statement; cited from earlier work
[3] = Lipophilicity profile (statement); assay type: physicochemical; conditions: neutral versus acidic pH

| SMILES | water solubility in words [1] | water solubility in words [2] | lipophilicity profile in words [3] |
| --- | --- | --- | --- |
| CC#CCn1c(N2CCC[C@@H](N)C2)nc2c1c(=O)n(Cc1ncccc1C#N)c(=O)n2C.Cl [1-[(3-cyano-pyridin-2-yl)methyl]-3-methyl-7-(2-butyn-1-yl)-8-[3-(R)-amino-piperidin-1-yl]-xanthine monohydrochloride] | water soluble |  |  |
| COc1ccc(CCN2CCC[C@H](CN3CCc4cc(OC)c(OC)cc4CC3=O)C2)cc1OC [Cilobradine] |  | highly water-soluble |  |
| COc1ccc(CCN2CCC[C@H](CN3CCc4cc(OC)c(OC)cc4CC3=O)C2)cc1OC.Cl [cilobradine hydrochloride] |  | highly water-soluble | slightly more lipophilic at neutral pH values |
